# Results taken from patent US20250387369A1 (priority 2022, published 2025).
# Tests used:
# [1] = system: type A influenza virus (H1N1 subtype); assay: microbe, parasite or virus in culture; format: cell-based; conditions: H1N1, Calu-3, 48 h
# [2] = system: Ebola virus-derived trVLP; assay: microbe, parasite or virus in culture; format: cell-based; conditions: Zaire ebolavirus, Huh-7, 48 h
Compound,IC50 [1],IC50 [2]
NC(=O)c1nc(F)c[nH]c1=O [Favipiravir],9.5 µM,–
CCC(CC)COC(=O)[C@H](C)N[P@](=O)(OC[C@H]1O[C@@](C#N)(c2ccc3c(N)ncnn23)[C@H](O)[C@@H]1O)Oc1ccccc1 [Remdesivir],–,0.1 µM
